# Results published in patent publication US20210128534A1, “DRUG DELIVERY SYSTEMS” (YISSUM RESEARCH DEVELOPMENT COMPANY OF THE HEBREW …, priority 2018, published 2021).
# Assays:
# [1] = Dexamethasone palmitate solubility in FDA approved oils for ophthalmic use; type: physicochemical
# Description: 8.1 Solubility in FDA Approved Oils for Ophthalmic Use
# Dexamethasone palmitate solubility was assessed in mineral oil, castor oil and MCT.
# [2] = Reconstitution stability of lyophilized tacrolimus NCs in isotonic aqueous solution; type: physicochemical; details: room temperature
# [3] = cited from earlier work
compound,measurement,setting,value
"CCCCCCCCCCCCCCCC(=O)OCC(=O)[C@@]1(O)[C@H](C)C[C@H]2[C@@H]3CCC4=CC(=O)C=C[C@]4(C)[C@@]3(F)[C@@H](O)C[C@@]21C [Dexamethasone, Dexamethasone palmitate]",Concentration,[1]; solubility in Castor oil,33600 µg/mL
same,Concentration,[1]; solubility in MCT,46600 µg/mL
same,Concentration,[1]; solubility in Mineral oil,1300 µg/mL
C=CC[C@@H]1/C=C(\C)C[C@H](C)C[C@H](OC)[C@H]2O[C@@](O)(C(=O)C(=O)N3CCCC[C@H]3C(=O)O[C@H](/C(C)=C/[C@@H]3CC[C@@H](O)[C@H](OC)C3)[C@H](C)[C@@H](O)CC1=O)[C@H](C)C[C@@H]2OC [Tacrolimus],time the active remained stable in aqueous formulation,[2],at least 2 weeks
Cyclosporine A [CsA],skin levels reported to be active for psoriasis,[3]; equivalent to 1 ng/mg,1000 ng/g
same,CsA concentration associated with good clinical response,"[3]; human patients with psoriasis, 12-hour trough",higher than 100 ng/ml
